Source: ChEMBL document CHEMBL1147899, “Raman, FT-IR, NMR spectroscopic data and antimicrobial activity of bis[micro2-(benzimidazol-2-yl)-2-ethanethiolato-N,S,S-chloro-palladium(II)] dimer, [(micro2-CH2CH2NHNCC6H4)PdCl]2.C2H5OH complex” (2007)

Legend:
Assay type in all cases: functional
[1] = test system: Rhodotorula mucilaginosa; test: Antifungal activity against Rhodotorula rubra DSM 70403 at 10 ug after 72 hrs by disk diffusion method; conditions: DSM 70403, 72 h, read-out: IZ
[2] = test system: Debaryomyces hansenii; test: Antifungal activity against Debaryomyces hansenii DSM 70238 at 10 ug after 72 hrs by disk diffusion method; conditions: DSM 70238, 72 h, read-out: IZ
[3] = test system: Kluyveromyces marxianus; test: Antifungal activity against Kluyveromyces fragilis NRRL 2415 at 10 ug after 72 hrs by disk diffusion method; conditions: NRRL 2415, 72 h, read-out: IZ
[4] = test system: Hanseniaspora guilliermondii; test: Antifungal activity against Hanseniaspora guilliermondii DSM 3432 at 10 ug after 72 hrs by disk diffusion method; conditions: DSM 3432, 72 h, read-out: IZ
[5] = test system: Candida albicans; test: Antifungal activity against Candida albicans ATCC 10231 at 10 ug after 72 hrs by disk diffusion method; conditions: ATCC 10231, 72 h, read-out: IZ

Compound `Clc1ccccc1C(c1ccccc1)(c1ccccc1)n1ccnc1` [CLOTRIMAZOLE] has a zone of inhibition at 10 µg/disc [1] of 16 mm, a zone of inhibition at 10 µg/disc [2] of 18 mm and a zone of inhibition at 10 µg/disc [3] of 18 mm. The zone of inhibition at 10 µg/disc [4] was 22 mm and the zone of inhibition at 10 µg/disc [5] was 15 mm.
